{"source": "ChEMBL document CHEMBL4842345", "about": "“Design, synthesis and biological evaluation of tanshinone IIA-based analogues: Potent inhibitors of microtubule formation and angiogenesis” (Eur J Med Chem, 2021)", "key": {"HepG2": {"test_system": "HepG2", "test": "Antiproliferative activity against human HepG2 cells assessed as reduction in cell viability measured after 72 hrs by MTT assay", "assay_type": "functional, cell-based", "settings": "HepG2, 72 h"}, "A549 [1]": {"test_system": "A549", "test": "Antiproliferative activity against human A549 cells assessed as decrease in DNA synthesis at 2.5 to 10 uM by Edu incorporation assay", "assay_type": "functional, cell-based", "settings": "dose 2.5-10 µM"}, "A549 [2]": {"test_system": "A549", "test": "Induction of apoptosis in human A549 cells assessed as activation of the initiator caspase-9 measured after 48 hrs by western blot analysis", "assay_type": "functional, cell-based"}, "Danio rerio [3]": {"species_on_record": "Danio rerio", "test": "Antiangiogenic activity in transgenic Tg(flk:EGFP) zebra fish embryos assessed as disruption of intersegmental vessels formation measured at 30 hrs post fertilization by confocal fluorescence microscopy analysis", "assay_type": "functional, organism-based"}, "A549 [4]": {"test_system": "A549", "test": "Inhibition of cell migration in human A549 cells assessed as decrease in wound healing rate at 0.5 to 2 uM measured after 48 hrs by wound healing assay", "assay_type": "functional, cell-based", "settings": "dose 0.5-2 µM"}, "Tubulin (Homo sapiens) [5]": {"molecular_target": "T1, Tubulin (Homo sapiens) (UniProt P68371+Q9H4B7+P0DPH7+P68366+Q13509+Q71U36+P04350+Q3ZCM7+P07437+P68363+Q9BQE3+Q6PEY2+Q13885+Q9BVA1+Q9BUF5)", "test": "Induction of microtubule distruption in human A549 cells assessed as reduction in number of living cells at 2.5 to 10 uM measured after 48 hrs by immunofluorescence based laser scanning confocal microscopic analysis", "assay_type": "cell-based", "settings": "dose 2.5-10 µM"}, "MCF7": {"test_system": "MCF7", "test": "Antiproliferative activity against human MCF7 cells assessed as reduction in cell viability measured after 72 hrs by MTT assay", "assay_type": "functional, cell-based", "settings": "MCF7, 72 h"}, "A549 [6]": {"test_system": "A549", "test": "Induction of cell cycle arrest in human A549 cells assessed as accumulation of cells at S phase at 10 uM measured after 48 hrs by flow cytometry analysis (Rvb= 24.5%)", "assay_type": "functional"}, "A549 [7]": {"test_system": "A549", "test": "Induction of apoptosis in human A549 cells assessed as live cells at 5 uM measured after 48 hrs by Annexin V-FITC/PI staining based flow cytometry analysis (Rvb= 97.1%)", "assay_type": "functional"}, "MGC-803": {"test_system": "MGC-803", "test": "Antiproliferative activity against human MGC-803 cells assessed as reduction in cell viability measured after 72 hrs by MTT assay", "assay_type": "functional, cell-based", "settings": "MGC-803, 72 h"}, "Tubulin (Homo sapiens) [8]": {"molecular_target": "T1, Tubulin (Homo sapiens)", "test": "Induction of microtubule distruption in human A549 cells assessed as disseminated microtubules in cytoplasm at 2.5 to 10 uM measured after 48 hrs by immunofluorescence based laser scanning confocal microscopic analysis", "assay_type": "cell-based", "settings": "dose 2.5-10 µM"}, "A549 [9]": {"test_system": "A549", "test": "Induction of cell cycle arrest in human A549 cells assessed as accumulation of cells at S phase at 2.5 uM measured after 48 hrs by flow cytometry analysis (Rvb= 24.5%)", "assay_type": "functional"}, "HUVEC [10]": {"test_system": "HUVEC", "test": "Antivascular activity against HUVEC cells assessed as reduction in area and number of meshes measured after 6 hrs by imaging analysis", "assay_type": "functional, cell-based", "settings": "Homo sapiens, dose 0.25-1 µM"}, "HUVEC [11]": {"test_system": "HUVEC", "test": "Antivascular activity against HUVEC cells assessed as reduction in area covered by HUVECs measured after 6 hrs by imaging analysis", "assay_type": "functional, cell-based", "settings": "Homo sapiens, dose 0.25-1 µM"}, "[12]": {"test": "Kinetic solubility of the compound at pH 6.5 by nephelometry", "assay_type": "physicochemical", "settings": "buffer, read-out: Kinetic_solubility"}, "A549 [13]": {"test_system": "A549", "test": "Induction of apoptosis in human A549 cells assessed as early apoptotic cells at 10 uM measured after 48 hrs by Annexin V-FITC/PI staining based flow cytometry analysis (Rvb= 0.72%)", "assay_type": "functional"}, "A549 [14]": {"test_system": "A549", "test": "Induction of apoptosis in human A549 cells assessed as late apoptotic cells at 2.5 uM measured after 48 hrs by Annexin V-FITC/PI staining based flow cytometry analysis (Rvb= 1.47%)", "assay_type": "functional"}, "Tubulin (Homo sapiens) [15]": {"molecular_target": "T1, Tubulin (Homo sapiens)", "test": "Inhibition of tubulin (unknown origin) polymerization assessed as decrease in fluorescence intensity at 12 uM by fluorescence based assay", "assay_type": "protein-complex assay"}, "A549 [16]": {"test_system": "A549", "test": "Induction of apoptosis in human A549 cells assessed as live cells at 2.5 uM measured after 48 hrs by Annexin V-FITC/PI staining based flow cytometry analysis (Rvb= 97.1%)", "assay_type": "functional"}, "HUVEC [17]": {"test_system": "HUVEC", "test": "Antiinvasive activity in HUVEC cells assessed as decrease in cell invasion at 0.25 to 1 uM measured after 48 hrs by crystal violet staining based transwell assay", "assay_type": "functional", "settings": "Homo sapiens, dose 0.25-1 µM"}, "HUVEC [18]": {"test_system": "HUVEC", "test": "Antivascular activity against HUVEC cells assessed as segment length measured after 6 hrs by imaging analysis", "assay_type": "functional, cell-based", "settings": "Homo sapiens, dose 0.25-1 µM"}, "HUVEC [19]": {"test_system": "HUVEC", "test": "Antivascular activity against HUVEC cells assessed as inhibition of capillary-like tubule formation measured after 6 hrs by matrigel matrix based microscopic analysis", "assay_type": "functional, cell-based", "settings": "Homo sapiens, dose 0.25-1 µM"}, "A549 [20]": {"test_system": "A549", "test": "Induction of apoptosis in human A549 cells assessed as cleavage of PARP at 2.5 to 10 uM measured after 48 hrs by western blot analysis", "assay_type": "functional, cell-based", "settings": "dose 2.5-10 µM"}, "A549 [21]": {"test_system": "A549", "test": "Induction of apoptosis in human A549 cells assessed as activation of executioner caspase-3 at 2.5 to 10 uM measured after 48 hrs by western blot analysis", "assay_type": "functional, cell-based", "settings": "dose 2.5-10 µM"}, "[22]": {"test": "Metabolic stability in human liver microsomes assessed as degradation half life", "assay_type": "ADME, Microsome", "settings": "microsomes"}, "A549 [23]": {"test_system": "A549", "test": "Induction of apoptosis in human A549 cells assessed as dead cells at 2.5 uM measured after 48 hrs by Annexin V-FITC/PI staining based flow cytometry analysis (Rvb= 0.67%)", "assay_type": "functional"}, "A549 [24]": {"test_system": "A549", "test": "Induction of cell cycle arrest in human A549 cells assessed as accumulation of cells at G1 phase at 5 uM measured after 48 hrs by flow cytometry analysis (Rvb= 60.29%)", "assay_type": "functional"}, "HUVEC [25]": {"test_system": "HUVEC", "test": "Inhibition of cell migration in HUVEC cells assessed as decrease in number of migrated endothelial cells at 0.25 to 1 uM measured after 48 hrs by crystal violet staining based transwell assay", "assay_type": "functional", "settings": "Homo sapiens, dose 0.25-1 µM"}, "A549 [26]": {"test_system": "A549", "test": "Induction of apoptosis in human A549 cells assessed as early apoptotic cells at 2.5 uM measured after 48 hrs by Annexin V-FITC/PI staining based flow cytometry analysis (Rvb= 0.72%)", "assay_type": "functional"}, "A549 [27]": {"test_system": "A549", "test": "Induction of apoptosis in human A549 cells assessed as live cells at 10 uM measured after 48 hrs by Annexin V-FITC/PI staining based flow cytometry analysis (Rvb= 97.1%)", "assay_type": "functional"}, "A549 [28]": {"test_system": "A549", "test": "Induction of apoptosis in human A549 cells assessed as dead cells at 5 uM measured after 48 hrs by Annexin V-FITC/PI staining based flow cytometry analysis (Rvb= 0.67%)", "assay_type": "functional"}, "Danio rerio [29]": {"species_on_record": "Danio rerio", "test": "Antiangiogenic activity in transgenic Tg(flk:EGFP) zebra fish embryos assessed as reduction in number of intersegmental vessels measured at 30 hrs post fertilization by confocal fluorescence microscopy analysis", "assay_type": "functional, organism-based", "settings": "dose 1-4 µM"}, "Danio rerio [30]": {"species_on_record": "Danio rerio", "test": "Antiangiogenic activity in transgenic Tg(flk:EGFP) zebra fish embryos assessed as reduction in length of intersegmental vessels measured at 30 hrs post fertilization by confocal fluorescence microscopy analysis", "assay_type": "functional, organism-based", "settings": "dose 1-4 µM"}, "Tubulin (Homo sapiens) [31]": {"molecular_target": "T1, Tubulin (Homo sapiens)", "test": "Induction of microtubule distruption in human A549 cells assessed as occurence of cell shrinkage at 2.5 to 10 uM measured after 48 hrs by immunofluorescence based laser scanning confocal microscopic analysis", "settings": "dose 2.5-10 µM"}, "A549 [32]": {"test_system": "A549", "test": "Induction of cell cycle arrest in human A549 cells assessed as increase in number of cells accumulation at G2/M phase at 5 uM measured after 48 hrs by flow cytometry analysis (Rvb= 16.72%)", "assay_type": "functional"}, "HUVEC [33]": {"test_system": "HUVEC", "test": "Antivascular activity against HUVEC cells assessed as reduction in number of branching points measured after 6 hrs by imaging analysis", "assay_type": "functional, cell-based", "settings": "Homo sapiens, dose 0.25-1 µM"}, "A549 [34]": {"test_system": "A549", "test": "Induction of cell cycle arrest in human A549 cells assessed as accumulation of cells at G1 phase at 10 uM measured after 48 hrs by flow cytometry analysis (Rvb= 60.29%)", "assay_type": "functional"}}, "note": "Calls of active or inactive are those of the source. No cut-off for these calls is given here."}
{"compound": "COc1ccc2c(c1)-c1occ(C)c1C(=O)C2=O", "values": [{"measurement": "IC50", "setting": "HepG2", "result": 2000, "unit": "nM"}, {"measurement": "Activity", "setting": "A549 [1]", "result": "Active"}, {"measurement": "Activity", "setting": "A549 [2]", "result": "Dose-Dependent Effect"}, {"measurement": "Activity", "setting": "Danio rerio [3]", "result": "Dose-Dependent Effect"}, {"measurement": "inhibition", "setting": "A549 [4]", "result": "Active"}, {"measurement": "Activity", "setting": "Tubulin (Homo sapiens) [5]", "result": "Active"}, {"measurement": "IC50", "setting": "MCF7", "result": 3160, "unit": "nM"}, {"measurement": "Activity", "setting": "A549 [6]", "result": 13.48, "unit": "%"}, {"measurement": "Activity", "setting": "A549 [7]", "result": 82.8, "unit": "%"}, {"measurement": "IC50", "setting": "MGC-803", "result": 840, "unit": "nM"}, {"measurement": "Activity", "setting": "Tubulin (Homo sapiens) [8]", "result": "Active"}, {"measurement": "Activity", "setting": "A549 [9]", "result": 21.27, "unit": "%"}, {"measurement": "Activity", "setting": "HUVEC [10]", "result": "Dose-Dependent Effect"}, {"measurement": "Activity", "setting": "HUVEC [11]", "result": "Dose-Dependent Effect"}, {"measurement": "solubility kinetic", "setting": "[12]", "result": 405, "unit": "µg/mL"}, {"measurement": "Activity", "setting": "A549 [13]", "result": 80.2, "unit": "%"}, {"measurement": "Activity", "setting": "A549 [14]", "result": 3.28, "unit": "%"}, {"measurement": "inhibition", "setting": "Tubulin (Homo sapiens) [15]", "result": "Active"}, {"measurement": "Activity", "setting": "A549 [16]", "result": 94.5, "unit": "%"}, {"measurement": "Activity", "setting": "HUVEC [17]", "result": "Active"}, {"measurement": "Activity", "setting": "HUVEC [18]", "result": "Dose-Dependent Effect"}, {"measurement": "Activity", "setting": "HUVEC [19]", "result": "Active"}, {"measurement": "Activity", "setting": "A549 [20]", "result": "Active"}, {"measurement": "Activity", "setting": "A549 [21]", "result": "Active"}, {"measurement": "t1/2", "setting": "[22]", "result": 1.8, "unit": "h"}, {"measurement": "Activity", "setting": "A549 [23]", "result": 0.68, "unit": "%"}, {"measurement": "Activity", "setting": "A549 [24]", "result": 54.43, "unit": "%"}, {"measurement": "inhibition", "setting": "HUVEC [25]", "result": "Active"}, {"measurement": "Activity", "setting": "A549 [26]", "result": 1.55, "unit": "%"}, {"measurement": "Activity", "setting": "A549 [27]", "result": 11.1, "unit": "%"}, {"measurement": "Activity", "setting": "A549 [28]", "result": 1.28, "unit": "%"}, {"measurement": "Activity", "setting": "Danio rerio [29]", "result": "Dose-Dependent Effect"}, {"measurement": "Activity", "setting": "Danio rerio [30]", "result": "Dose-Dependent Effect"}, {"measurement": "Activity", "setting": "Tubulin (Homo sapiens) [31]", "result": "Active"}, {"measurement": "Activity", "setting": "A549 [32]", "result": 20, "unit": "%"}, {"measurement": "Activity", "setting": "HUVEC [33]", "result": "Dose-Dependent Effect"}, {"measurement": "Activity", "setting": "A549 [34]", "result": 55.29, "unit": "%"}]}
